Series [1] can be described thus: Human coffee intervention study: plasma concentrations after roasted coffee brew by UPLC-MS/MS. The settings on record: for Cmax / time of estimated cmax: human plasma after coffee brew (200 mL); for Cmax: n = 10, mean ± SD, read-out: estimated cmax in plasma; for time of estimated cmax: sampling only at 0, 1, 4, 10 h. The format is in vivo. On the procedure: The study included ten volunteers (5 females, 5 males) (age: 28.3 ± 2.3 years; BMI: 21.89 ± 2.22 kg/m^2). The intervention study took place from November 5, 2021, to February 17, 2022, in the core facility human studies of the ZIEL Institute for Food and Health of the Technical University of Munich. The study was performed in agreement with the Declaration of Helsinki, and all participants gave written informed consent. The study was approved by the Ethics Committee of the Technical University of Munich (5798/13 S-SR) and registered in the German Register of Clinical Studies (DRKS00005083).
The study participants underwent a dietary protocol that excluded all forms of coffee consumption. Additionally, chocolate, black/green/white, mate tea, cola, energy drinks, and beauty products containing caffeine (e.g., shampoos, creams) were prohibited 1 week before the test day. Furthermore, the study participants received a standardized meal the evening before the test day. The meal was composed of pasta, margarine, and salt, and the amount of energy was calculated based on the participant’s basal energy demand. On the morning of the test day, the participants were in a fastened state and received water (control samples) or coffee brew (coffee intervention) as breakfast. Blood was sampled before coffee intake (0 h) and at defined time points (1, 4, and 10 h) after coffee intake. 6 h after the coffee intake, the participants received lunch, the same standardized meal as the previous dinner. The administered coffee was prepared from a coffee capsule (Nespresso, ROMA) with 100 mL water. The administered volume of the coffee brew was 200 mL. Based on the coffee powder per capsule ([…]), the concentrations of 2 (2.8 μmol/g) and 3 (1.1 μmol/g), respectively,[10] and an estimated extraction rate of 100%, the total ingested amounts were 33.6 μmol (2) and 13.2 μmol (3).
In an Eppendorf tube (1.5 mL), aliquots (50 μL each) of the calibration standard, sample, or QC, respectively, were mixed with the IS solution (1000 nM in ethanol, 50 μL) and acetonitrile/ethanol (9 + 1, v + v, 50 μL) was added. After vortexing, suspensions were cleared by centrifugation (12,000 rpm, 4 °C, 10 min), and the supernatant (∼100 μL) was transferred to an HPLC vial with 200 μL insert for analysis (5 μL injection).
The UPLC–MS/MS system consisted of a Shimadzu Nexera X2 UPLC system (Shimadzu, Duisburg, Germany) hyphenated to a QTrap 5500 MS/MS system (Sciex, Darmstadt, Germany) operating in negative electrospray (ESI^–) mode with the following ion source parameters: ion spray voltage: −4500 V; source temperature: 500 °C; nebulizer gas: 55 psi; heater gas: 65 psi; and curtain gas: 35 psi. The MS/MS parameters, including the collision cell entrance potential (CEP), declustering potential (DP), collision energy (CE), and cell exit potential (CXP), were tuned for each compound and mass transition and are summarized in Supporting Table S3. The dwell time for each compound was 30 ms, and the total cycle time was 0.75 s. Chromatographic separation was achieved on a C18 column (Kinetex C18, 100 mm × 2.1 mm, 1.7 μm, Phenomenex, Aschaffenburg, Germany) at a flow rate of 500 μL/min flow rate. Eluent A was 0.1% formic acid in water, and eluent B was 0.1% formic acid in acetonitrile. B was kept at 3% (1 min), increased to 25% (in 3 min), 90% (in 2 min, 1 min isocratic), and 3% (0.5 min, 2.5 min isocratic). The total time of the analysis was 10 min. The column effluent was introduced from the waste to the MS/MS system between 3 and 7 min.
We applied this method to human plasma samples from a coffee intervention study to investigate the appearance of coffee compounds 1–3 and metabolites M1–M3. Ten participants underwent a washout period (7 days) and then consumed one dose of […]. Blood samples were taken at baseline (0 h) and 1, 4, and 10 h after the intervention. […]

On the set-up of series [2]: method as in PMID 36442242. The settings on record: coffee drinkers' urine, four of six samples, qualitative; cited from earlier work.
Where [3] appears, read: both sexes, human, plasma, oral, 200 mL, 1 h after coffee brew (200 mL), human plasma, values above LLOQ, read-out: plasma concentration, mean ± SD.
The mark [4] stands for this setting: both sexes, human, plasma, oral, 200 mL, 10 h after coffee brew (200 mL), human plasma, values above LLOQ, read-out: plasma concentration, mean ± SD.
The mark [5] stands for this setting: human, plasma, oral, 200 mL, participant ayia, 1 h after coffee, read-out: plasma concentration, individual.
Where [6] appears, read: human, plasma, oral, 200 mL, participant ayia, 10 h after coffee, read-out: plasma concentration, individual.
Setting [7] is: human, plasma, oral, 200 mL, participant cbdu, 1 h after coffee, b = below LLOQ, read-out: plasma concentration, individual.
Setting [8] is: human, plasma, oral, 200 mL, participant cbdu, 10 h after coffee, read-out: plasma concentration, individual.
The mark [9] stands for this setting: human, plasma, oral, 200 mL, participant eogo, 10 h after coffee, b = below LLOQ, read-out: plasma concentration, individual.
[10] abbreviates: human, plasma, oral, 200 mL, participant ggot, 1 h after coffee, read-out: plasma concentration, individual.
The mark [11] stands for this setting: human, plasma, oral, 200 mL, participant ggot, 10 h after coffee, b = below LLOQ, read-out: plasma concentration, individual.
[12] abbreviates: human, plasma, oral, 200 mL, participant imhz, 10 h after coffee, read-out: plasma concentration, individual.
Setting [13] is: human, plasma, oral, 200 mL, participant mgjj, 10 h after coffee, read-out: plasma concentration, individual.
The mark [14] stands for this setting: human, plasma, oral, 200 mL, participant wbqj, 1 h after coffee, b = below LLOQ, read-out: plasma concentration, individual.
Setting [15] is: human, plasma, oral, 200 mL, participant wbqj, 10 h after coffee, b = below LLOQ, read-out: plasma concentration, individual.
[16] abbreviates: human, plasma, oral, 200 mL, participant wbvs, 10 h after coffee, read-out: plasma concentration, individual.

These results are taken from article PMC10722499, “Consumption of Roasted Coffee Leads to Conjugated Metabolites of Atractyligenin in Human Plasma” (Journal of Agricultural and Food Chemistry, 2023).

SMILES strings stand for the structures. Like-named read-outs stand apart in the source and are kept apart here.

For the molecule `CC1C(=O)C23CCC4C(C(=O)OC5OC(C(=O)O)C(O)C(O)C5O)CC(O)CC4(C)C2CCC1C3` [M2, 2β-hydroxy-15-oxoatractylan-4α-carboxy-19-O-β-D-glucuronide], the “plasma level at baseline” value in series [1] (0 h, before coffee intake, human plasma) is “below the LLOQ”. Moreover, the “plasma concentration, mean ± SD” value in series [1] (1 h after coffee brew (200 mL), human plasma, values above LLOQ) is 0.6 ± 0.1 nM. Moreover, the “samples above the LLOQ” value in series [1] (10 h after coffee, n = 10) came to 80%. In addition, the concentration at 1 h in series [1] (setting [3]) stood at 0.63 ± 0.14 nM; in series [1] (setting [5]) it was 0.5 nM; in series [1] (setting [7]), 0.1 nM; in series [1] (setting [10]), 0.7 nM; in series [1] (setting [14]), 0.01 nM. Also, the concentration at 10 h in series [1] (setting [4]) is 2.5 ± 1.9 nM; in series [1] (setting [6]), 5.6 nM; in series [1] (setting [8]), 0.9 nM; in series [1] (setting [9]) it was 3.1 nM; in series [1] (setting [11]), 0.6 nM; in series [1] (setting [12]), 1.1 nM. The concentration at 10 h was 0.8 nM in series [1] (setting [13]), 2.8 nM in series [1] (setting [15]) and 5.1 nM in series [1] (setting [16]). The Cmax in series [1] (both sexes, oral) was 2.5 ± 1.9 nM. Besides, in series [1], the “time of estimated cmax” value is reported as 10 h. In addition, in series [1] (human plasma, n = 10), the “study participants in whom the conjugate appeared within 10 h after coffee” value stood at 80%. For the same molecule, in series [1] (human, plasma, oral, 200 mL, participant ayia, 4 h after coffee, b = below LLOQ, read-out: plasma concentration, individual), the concentration at 4 h was 0.1 nM. Besides, the concentration at 0 h in series [1] (human, plasma, oral, 200 mL, participant rrmk, 0 h, b = below LLOQ, read-out: plasma concentration, individual) amounted to 0.1 nM. In addition, the “urine samples in which detected” value in series [2] is 67%.

For the molecule `C=C1[C@@H]2CC[C@@H]3[C@@](CCC4[C@H](C(=O)O)C[C@@H](O)C[C@]43C)(C2)[C@@H]1O` (stereo partly drawn) [compound 1, atractyligenin], the concentration at 1 h in series [1] (setting [3]) amounted to 41.9 ± 12.5 nM; in series [1] (setting [5]), 36.5 nM; in series [1] (setting [7]), 31.6 nM; in series [1] (human, plasma, oral, 200 mL, participant eogo, 1 h after coffee, b = below LLOQ, read-out: plasma concentration, individual), 43.4 nM; in series [1] (setting [10]), 49.2 nM; in series [1] (human, plasma, oral, 200 mL, participant imhz, 1 h after coffee, read-out: plasma concentration, individual), 70.5 nM. The concentration at 1 h in series [1] (human, plasma, oral, 200 mL, participant mgjj, 1 h after coffee, read-out: plasma concentration, individual) worked out at 34.7 nM; in series [1] (human, plasma, oral, 200 mL, participant rrmk, 1 h after coffee, read-out: plasma concentration, individual) it was 42.7 nM; in series [1] (setting [14]), 49.1 nM; in series [1] (human, plasma, oral, 200 mL, participant wbvs, 1 h after coffee, read-out: plasma concentration, individual), 36.1 nM; in series [1] (human, plasma, oral, 200 mL, participant xrwz, 1 h after coffee, read-out: plasma concentration, individual), 26 nM. Besides, the concentration at 4 h was 40.1 ± 22.9 nM in series [1] (both sexes, human, plasma, oral, 200 mL, 4 h after coffee brew (200 mL), human plasma, values above LLOQ, read-out: plasma concentration, mean ± SD); 13.8 nM in series [1] (human, plasma, oral, 200 mL, participant ggot, 4 h after coffee, b = below LLOQ, read-out: plasma concentration, individual); 19.6 nM in series [1] (human, plasma, oral, 200 mL, participant imhz, 4 h after coffee, read-out: plasma concentration, individual); 17.7 nM in series [1] (human, plasma, oral, 200 mL, participant mgjj, 4 h after coffee, read-out: plasma concentration, individual); 68.1 nM in series [1] (human, plasma, oral, 200 mL, participant rrmk, 4 h after coffee, b = below LLOQ, read-out: plasma concentration, individual); 59.7 nM in series [1] (human, plasma, oral, 200 mL, participant wbqj, 4 h after coffee, b = below LLOQ, read-out: plasma concentration, individual). In addition, in series [1] (human, plasma, oral, 200 mL, participant wbvs, 4 h after coffee, read-out: plasma concentration, individual), the concentration at 4 h was found to be 35.2 nM. Besides, the concentration at 10 h in series [1] (setting [4]) is 23.3 ± 10.5 nM; in series [1] (setting [6]) it was 25.6 nM; in series [1] (setting [8]), 19 nM; in series [1] (setting [9]), 8 nM; in series [1] (setting [11]), 2.3 nM; in series [1] (setting [12]), 43.7 nM. In addition, the concentration at 10 h in series [1] (setting [13]) was 16.5 nM; in series [1] (human, plasma, oral, 200 mL, participant rrmk, 10 h after coffee, read-out: plasma concentration, individual), 17.9 nM; in series [1] (setting [15]), 4.7 nM; in series [1] (setting [16]) it was 17 nM; in series [1] (human, plasma, oral, 200 mL, participant xrwz, 10 h after coffee, b = below LLOQ, read-out: plasma concentration, individual), 10.4 nM. In addition, the Cmax in series [1] (both sexes, oral) was 41.9 ± 12.5 nM. The “drop of plasma concentration until 10 h” value in series [1] (from the level between 1 and 4 h to 10 h after coffee) is around 45%. For the same molecule, the “time of estimated cmax” value in series [1] was 1 h. Besides, the “participants in whom plasma concentration increased between 4 and 10 h” value in series [1] (individual plots, after first maximum at 1 h) is listed as 60%.

Take `CC1C(=O)C23CCC4C(C(=O)O)CC(O)CC4(C)C2CCC1C3` (stereo not drawn) [compound 5, 2β-hydroxy-15-oxoatractylan-4α-carboxylic acid]: the “appearance in plasma after coffee” value in series [1] (all samples 1, 4, 10 h after coffee brew (200 mL), human plasma) is “did not appear in the plasma”.
